For this assay, the target named is T1, 14-3-3γ/ERRγ complex (Homo sapiens, UniProt P61981+P62508).
T1 construct: made in house; host or cells: E. coli NiCo21 (DE3)
Description: Peptide washout experiment on immobilized 14-3-3γ/ERRγ complex. Type of assay: binding. As to conditions: 100 μM compound; for total recovered ERRγ peptide: 5 washing steps of 20 min, normalized to recovery without 14-3-3γ; for initial peptide recovery: first washing step (DMSO 63%). As to the method: Next, a washout experiment was performed to understand ternary 14-3-3/ERRγ/molecular lock complex dissociation. Fluorescein-labeled ERRγ was incubated overnight with biotin-functionalized 14-3-3γ in the presence of either DMSO, disulfide 1, aldehyde 3, or molecular lock 5 and subsequently immobilized on streptavidin-functionalized magnetic beads (Figure S17a). The beads were then washed five times in a peptide and compound-free buffer. During each wash step, the beads were incubated in the buffer for 20 min to allow dissociation of the ERRγ peptide from the immobilized 14-3-3γ. The fluorescence was then measured for all samples before capture, after capture, and after each washing step (Figure S17b), and the amount of peptide recovery was calculated. […] The analysis of individual washing steps provided further insight into the ternary complex dissociation kinetics (Figure 3e).
Figure S17. Washout experiment. (a) Schematic representation of washout experiment. Biotinylated 14-3-3γ (5 µM), fluorescein-labelled ERRγ 9-mer peptide (200 nM) and dual-reactive molecular lock 5 were preincubated overnight to form a ternary ‘crosslinked’ complex. This complex was immobilized on streptavidin-functionalized magnetic beads. Complex-functionalized beads were subsequently washed […] with 50 µL buffer. For each wash step, the complex was incubated 20 minutes in the buffer before removal to allow dissociation of the ERRγ peptide from the ternary complex. From samples before and after capturing, and from all wash fractions, we have measured the fluorescence to determine the amount of ERR γ peptide in each fraction. (b) Fluorescence signal of fluorescein-labelled ERRγ peptide after washout experiment. Samples are present for FAM - ERRγ incubated with and without biotinylated 14 -3-3γ and in presence of either DMSO (negative control), disulfide compound 1, aldehyde compound 3 or dual-reactive compound 5. Fluorescence was measured from samples before and after capturing and from all wash fractions. (c) % recovery of FAM -ERRγ in each wash fraction of washout experiment. Percentage is obtained by dividing the fluorescence of each sample (see panel a) by the fluorescence signal obtained before capturing (input sample = 100% , see panel a). […]
steps in presence of DMSO, or 100 µM compound 1, 3 or 5. Values are calculated by dividing the fluorescence signal (from panel a) of samples with 14-3-3 with the fluorescence signal of samples without 14-3-3, to correct for non-specific binding of peptide to the magnetic beads. […]
temperatures are based on three independent experiments from which the average and standard deviations were determined using excel. […]

T1 sequence (P61981 whole entry, other chains not shown): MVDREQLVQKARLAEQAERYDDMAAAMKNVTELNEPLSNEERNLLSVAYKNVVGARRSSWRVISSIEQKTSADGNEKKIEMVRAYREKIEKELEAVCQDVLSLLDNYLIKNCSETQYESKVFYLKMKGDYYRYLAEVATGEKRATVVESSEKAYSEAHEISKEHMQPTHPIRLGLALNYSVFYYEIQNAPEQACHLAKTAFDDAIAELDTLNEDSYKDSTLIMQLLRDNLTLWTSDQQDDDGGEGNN

For the compound `CN(C)CCSSCCN(C)C(=O)c1cccc(F)c1` [compound 1, reference compound], the “total recovered ERRγ peptide” value was 58% and the initial peptide recovery turned out to be 42%.

Turning to `CN(C)CCSSCCN(C)C(=O)c1ccc(C=O)c(F)c1` [compound 5], the “total recovered ERRγ peptide” value came to 44% and the initial peptide recovery is on record as 36%.

Values taken from article PMC10064330, “Reversible Dual-Covalent Molecular Locking of the 14-3-3/ERRγ Protein–Protein Interaction as a Molecular Glue Drug Discovery Approach” (Journal of the American Chemical Society, 2023).
